Assay results taken from US6861524B2, “Acyl and sulfonyl derivatives of 6,9-disubstituted 2-(trans-1,4-diaminocyclohexyl)-purines and their use as antiproliferative agents” (Aventis Pharmaceuticals Inc., priority 2000, dated 2005).
pIC50: −log10 of the molar value. Counter-ions that a name gives are not always drawn. Like-named read-outs stand apart in the source and are kept apart here.

Key:
[1] = tested on: PC-3; assay: In vitro proliferation assay (MTT), PC-3; format: cell-based, human
Description: (§1) The proliferation of tumor cells can be measured using a tetrazolium salt-based assay known as the MTT (3-[4,5-Dimethylthiazol-2-yl]-2,5-diphenyltetrazolium bromide) assay. […] For the assay, the cell lines are plated onto 96 well plates at 1000 to 2500 cells/well (depending on the properties of the individual cell lines), left to attach and recover overnight. […] After 3 days, the cells are incubated with MTT dye (3-[4,5-Dimethylthiazol-2-yl]-2,5-diphenyltetrazolium bromide, Sigma #M5655, 10 mg/ml in Hank's Buffered Saline) to estimate the amount of live cells remaining vs. concentration for the test compounds. […] The MTT and culture medium is then removed from the cultures and 200 μl of DMSO is added to solubilize the dye from the cell layer. The absorbance at 570 nm is determined for each culture using a Spectramax plate reader (Molecular Devices).
(§2) IC50s were determined from the raw data from either the MTT or SRB assays.
(§3) All of the cell lines were obtained from American Type Tissue Collection, with the ATCC accession number in parentheticals. MCF-7 and MDA-MB-231 cells were grown in improved minimum essential medium (Biofluids) without phenol red, supplemented with 5% fetal bovine serum, 0.01 mg/ml gentamicin and 3 mM L-glutamine.

[2] = Plasma pharmacokinetics in mice after single intravenous cassette doses; conditions: for Mean Conc. in plasma: mice
Description: Male mice are given single intravenous cassette doses of CDK inhibitor compounds.
A single intravenous cassette dose (18 or 15 mg/kg free base) is administered. For each compound, this is equivalent to a dose of approx. 3 mg/kg free base. […] The dose is administered at a volume of 10 ml/kg (total volume of approximately 0.25 ml/animal).
Male mice (Hsd:ICR (CD-1® SD®), Harlan), each weighing approximately 20-30 g at the start of the study. […] Water is available ad libitum throughout the study.
A single cassette dose of 5-6 compounds is administered by bolus injection into the tail vein over a 10-15-second period. […] Whole blood (approximately 0.6 ml/sample) is obtained by cardiac puncture and transferred to 3 ml glass tubes containing 45 U sodium heparin.
Sample Processing: Plasma: Whole blood is centrifuged at approximately 3,200 rpm for 10 min at approximately 5° C. and the plasma (approx. 0.3 ml/sample) is transferred to chilled plastic vials and stored at approx. −70° C. until bioanalysis.
Sample Analysis: Concentrations of each test article in plasma are quantitated by a non-validated method based on LC/MS using the following protocol.
Samples are removed from the freezer, allowed to thaw at room temperature, and vortexed to insure complete homogenization prior to sample manipulation. Samples are then prepared according to the following scheme: • 1. transfer 48 μL of plasma (blank mouse sample) into a 12×75 mm test tube. • 2. add 12 μL of working standard to the blank plasma for standard curve preparation. • 3. […] Inject 25 μL on LC/MS. Chromatographic Conditions:
Data Analysis: Concentrations of Compounds in plasma of individual animals are determined by bioanalytics. […] Statistical analyses are limited to simple expressions of variation (mean and standard deviation). The plasma AUC (area-under-curve) is determined by the linear trapezoidal rule. […] All PK parameters are determined by noncompartmental methods using WinNonlin version 3.0 (Pharsight Corp).
The following information is based on a graph of the semi-log of the plasma concentration in ng/ml versus collection time in hours. • “Cmax” represents the maximum plasma concentration. • “t1/2” represents the half-life of the compound. • “AUC0-∞” represents the calculated area under the curve. • “AUC % Extrap(obs.)” represents the extrapolated area under the curve. • “Cls” is the clearance rate.

[3] = Red blood cell binding (RBC to plasma ratio), human whole blood; format: in vitro ADME; conditions: 30 minutes at 37° C., nominal 500 ng/ml
Description: (§4) Compounds, including one positive control, are assessed for red blood cell (RBC) uptake, using a modified procedure based on the protocol reported in Sun, J. X. S., et al. High-performance liquid chromatographic analysis, plasma protein binding and red blood cell partitioning of phenprobamate. Biopharmaceutics and Drug Disposition, 8 (1987) 341-351.
(§5) Briefly, RBC uptake is evaluated by comparison of the levels in spiked plasma (n=3) and plasma isolated from spiked whole blood (n=3). Compounds are incubated with human and mouse whole blood, respectively, for 30 minutes at 37° C. using a nominal concentration of 500 ng/ml. Following centrifugation, the plasma is removed and submitted for analysis. Each compound is also spiked into blank plasma at a nominal concentration of 500 ng/ml, and submitted for analysis. Levels in the two plasma samples (Cp′ and Cp in the equation below) and the blood hematocrit are used to determine the red blood cell to plasma ratio (Crbc/Cp). [formula] In equation 1, Cp′ is the level of drug in the spiked “blank” plasma, Cp is the level of drug in the plasma of spiked whole blood, and H is the hematocrit. The hematocrit values are determined as 0.4 for human whole blood and 0.41 for mouse whole blood. The samples are analyzed with ESI LC/MS, using positive ion detection with an internal standard.
(§6) The red blood cell to plasma ratio is determined for each compound using equation 1. Tables 6 and 7 summarize the respective mean Crbc/Cp values and standard deviations for mouse and human whole blood, respectively, in descending order based on the red blood cell to plasma ratio, where “*” denotes Positive Control, and “ND” denotes Not Determined. MDL 108552 is included as a positive control for red blood cell uptake.

[4] = Red blood cell binding (RBC to plasma ratio), mouse whole blood; format: in vitro ADME; conditions: 30 minutes at 37° C., nominal 500 ng/ml, hematocrit 0.41
Description: as §4, §5, §6

[5] = tested on: PC12 cells, or rat sympathetic neurons; conditions: Park et al. 1997, cited from earlier work; for concentration giving maximal protection from death: camptothecin-treated PC12 cells or rat sympathetic neurons; for cell death at day 6: camptothecin-treated neuronal cells
[6] = tested on: SMC; conditions: in vitro and in vivo; Ruef et al. 1999; cited from earlier work
[7] = molecular target: cdk4/cyclin D1 (Homo sapiens, UniProt P11802); assay: Cyclin-dependent kinase assay, cdk4/cyclin D1 (GST-pRb substrate); format: biochemical; conditions: inhibition of cyclin D1/CDK 4 enzyme activity
cdk4/cyclin D1, sequence (P11802 whole entry): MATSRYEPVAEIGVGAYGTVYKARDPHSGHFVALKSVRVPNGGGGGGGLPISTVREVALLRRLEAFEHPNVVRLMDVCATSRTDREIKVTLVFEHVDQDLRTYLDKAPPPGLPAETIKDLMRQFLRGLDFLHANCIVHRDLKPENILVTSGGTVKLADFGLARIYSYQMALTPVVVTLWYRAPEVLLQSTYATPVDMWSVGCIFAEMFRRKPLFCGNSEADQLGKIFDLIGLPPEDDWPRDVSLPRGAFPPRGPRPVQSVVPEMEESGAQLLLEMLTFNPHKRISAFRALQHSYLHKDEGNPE
cdk4/cyclin D1, sequence (P24385 whole entry partner): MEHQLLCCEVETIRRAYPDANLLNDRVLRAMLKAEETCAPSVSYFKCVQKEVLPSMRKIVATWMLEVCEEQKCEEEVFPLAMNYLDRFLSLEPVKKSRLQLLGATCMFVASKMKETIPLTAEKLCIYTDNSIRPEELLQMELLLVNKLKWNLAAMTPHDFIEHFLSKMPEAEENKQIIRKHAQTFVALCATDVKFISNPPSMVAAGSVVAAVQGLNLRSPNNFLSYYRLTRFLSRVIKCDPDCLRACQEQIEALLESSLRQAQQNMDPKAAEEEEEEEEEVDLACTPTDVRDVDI

[8] = molecular target: cdk1/cyclin B (Homo sapiens, UniProt P06493); assay: Cyclin-dependent kinase assay, cdk1/cyclin B (Histone H1 substrate)
cdk1/cyclin B, sequence (P06493 whole entry): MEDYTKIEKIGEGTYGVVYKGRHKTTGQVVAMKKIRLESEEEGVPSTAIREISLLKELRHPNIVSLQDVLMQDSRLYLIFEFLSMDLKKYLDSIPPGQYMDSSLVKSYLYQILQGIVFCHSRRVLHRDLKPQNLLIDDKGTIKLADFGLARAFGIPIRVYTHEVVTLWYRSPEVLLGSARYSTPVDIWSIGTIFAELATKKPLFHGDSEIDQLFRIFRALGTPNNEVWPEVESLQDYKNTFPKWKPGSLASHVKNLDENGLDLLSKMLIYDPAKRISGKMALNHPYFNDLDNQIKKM
cdk1/cyclin B, sequence (P14635 whole entry partner): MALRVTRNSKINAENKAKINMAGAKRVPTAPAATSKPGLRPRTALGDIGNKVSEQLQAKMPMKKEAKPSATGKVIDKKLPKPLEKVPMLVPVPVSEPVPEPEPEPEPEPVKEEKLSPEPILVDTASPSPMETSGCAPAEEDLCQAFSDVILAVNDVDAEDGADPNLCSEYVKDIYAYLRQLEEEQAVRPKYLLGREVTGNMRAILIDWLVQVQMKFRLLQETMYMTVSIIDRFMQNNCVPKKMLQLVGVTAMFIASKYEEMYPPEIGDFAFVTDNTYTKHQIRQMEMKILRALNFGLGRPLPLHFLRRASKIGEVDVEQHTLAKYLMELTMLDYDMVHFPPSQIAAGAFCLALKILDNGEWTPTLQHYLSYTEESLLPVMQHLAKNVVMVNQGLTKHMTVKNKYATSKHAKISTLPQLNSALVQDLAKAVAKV
Description: (§7) The IC50 values for cdk1/cyclin B, cdk2/cyclin E, and cdk4/cyclin D1 inhibition are determined using the following methods:
The cdk1 sequence (accession number Y00272) is amplified by PCR and cloned into the BamHI and SalI sites of pFASTBAC1 (Life Technologies).
The cyclin B1 sequence (accession number M25753) is amplified by PCR and cloned into the BamHI and SalI sites of pFASTBAC1 (Life Technologies).
(§8) The cDNA for each of the cyclin-dependent kinases (CDK) and the corresponding cyclins are cloned into the baculovirus expression vector, pFASTBAC1 (Life Technologies). The sequences of each of the constructs are confirmed by automated fluorescent DNA sequencing according to the manufacture's protocol (Perkin Elmer/Applied Biosystems Inc).
(§9) The insect cell (Sf9) expression is optimized for each of the CDK/cyclin pairs according to the manufacturer's protocols (Life Technologies).
(§10) The viruses are added to the cells and the culture is incubated at 27° C. for the desired time. The cells are harvested by centrifugation at 3000 rpm for 10 minutes. The cells are snap frozen on dry ice and stored at −80° C.
(§11) Cell extracts are made following a standard procedure. The cell pellet is resuspended in lysis buffer (50 mM HEPES, pH 8.0, 10 mM MgCl2, 1 mM DTT, 2.5 mM EGTA, 1 mM EDTA, 10 mM β-glycerophosphate, 1 mM sodium vanadate, 1 mM sodium fluoride, 1×Protease inhibitor cocktail). The cells are lysed using the microfluidizer (Microfluidics) for 20 minutes. Cell debris is removed by centrifugation at 100,000×g. The cell extracts are aliquoted in 1 ml aliquots, frozen on dry ice, and stored at −80° C.
The kinase reactions are performed following a standard procedure. The enzyme and inhibitor are diluted in kinase buffer (50 mM HEPES, pH 8.0, 10 mM MgCl2, 2.5 mM EGTA, 10 mM β-glycerophosphate, 1 mM sodium vanadate, 1 mM sodium fluoride, and 1 mM DTT) and pre-incubated for 30 minutes. […] The cdk1 enzyme activity is assayed using Histone H1 (Sigma) in the presence of 10 μM ATP for 30 min at room temperature. The reactions are terminated by the addition of 50 μL of 10 mM cold ATP to stop the reactions. The reactions are transferred to a pre-soaked 96-well multi-screen plate containing 30 μL of 100% TCA per well. After incubation for one hour at room temperature, the plates are washed twice with 200 μl of 20% TCA, followed by 200 μl of 10% TCA and finally with 200 μl of 5% TCA. After drying the plates at room temperature, the filter plates are placed in adapter plates (Packard) and 40 μl of Microscint-O® (Packard) is added to each well. Top Seal A film is used to cover the plates before counting in a Top Count Scintillation Counter.
The % remained activity of the indicated Cdk/cyclin kinase complex in the presence of inhibitor is calculated by the ratio of cpm in the presence of inhibitor to cpm in the absence of inhibitor (% Activity=vi/vo×100%).

[9] = tested on: MDA-MB-435; assay: In vitro proliferation assay (MTT), MDA-MB-435; format: cell-based, human; conditions: mean (SD, n) where given, read-out: MB-435 Breast (IC50 μM)
Description: as §1, §2, §3

[10] = molecular target: cdk2/cyclin E (Homo sapiens, UniProt P24941); assay: Cyclin-dependent kinase assay, cdk2/cyclin E (GST-pRb substrate); conditions: read-out: CDK2 IC50; inhibition of cyclin E/CDK 2 enzyme activity
Description: as §7
The cdk2 sequence (accession number X62071) is amplified by PCR and cloned into the SpeI and XhoI sites of pFASTBAC1 (Life Technologies). […] This primer would anneal in the 3′ untranslated sequence.
The cyclin E sequence (accession number M73812) is amplified by PCR and cloned into the XbaI and XhoI sites of pFASTBAC1 (Life Technologies).
as §8, §9, §10, §11
The kinase reactions are performed following a standard procedure. […]
The transformed bacteria are grown overnight to saturation, then diluted in YT broth and incubated at 37° C. for 2 h. […] The beads are washed with kinase buffer and then quantitated of Coomassie blue-stained proteins separated by SDS-PAGE using a protein standard of known concentration.

[11] = tested on: herpes simplex virus; conditions: Schang et al. 1998; cited from earlier work
[12] = tested on: cortical neurons; conditions: Park et al. 1997; cited from earlier work
[13] = tested on: HL-60 human leukemia; assay: HL-60 human leukemia xenograft in nude mice; format: in vivo; conditions: Table 5; 1 mg/kg ip q1d 5x/wk; control 8341 ± 5355
Description: Antitumor efficacy is assessed using two subcutaneous human tumor xenograft models. The studies are performed using conventional assay techniques. Briefly, HL-60 (leukemia, 5×10^5 cells) and PC-3 (prostate, 5×10^6 cells) tumor cells are injected subcutaneously into nude mice (Cr1-CD1-Br-nu, Charles River Laboratory, Wilmington, Mass.). Dosing with compounds began when tumors reached 50 to 100 mm^3. The dose route/schedule for the test compounds is ip/q1d (5×/wk). The test doses are set based on the maximum tolerated dose (MTD). […] The test doses for the efficacy studies are set at ⅓rd the MTD (low dose) and the MTD (high dose). The results are shown in Tables 4 and 5 (HL-60, leukemia) (PC-3, prostate cancer). The length of the treatment phase is dependent on the tumor growth rate for the two models. This treatment phase is typically about 3 weeks for the HL-60 model and about 5 weeks for the PC-3 model. […] Dosing with flavopiridol is for the same time frame as for the experimental compounds in both xenograft models. Tumor volume (twice weekly) and body weights (once weekly) are monitored throughout the course of the treatment phase of the experiment. Tumor sizes are measured by external caliper measurements of protruding tumor. Volumes are calculated using the following formula: volume=½ (a×b2), where b is the smaller of two perpendicular diameters.

Cl.Cl.N[C@H]1CC[C@H](Nc2nc(NC3CCN(C(=O)Oc4ccc(F)cc4)CC3)c3ncn(C4CCCC4)c3n2)CC1 [Compound 87, trans-4-[2-(4-Amino-cyclohexylamino)-9-cyclopentyl-9H-purin-6-ylamino]-piperidine-1-carboxylic acid 4-fluoro-phenyl ester dihydrochloride]
IC50 ([1]; Homo sapiens, PC-3, read-out: PC-3 Prostate (IC50 μM)): 0.16 µM | Mean Conc. in plasma ([2]; Cassette #3, single 15 mg/kg iv cassette dose (3 mg/kg/compound), 0.083 h): 1171.4 ± 153.4 ng/mL | Mean Conc. in plasma ([2]; Cassette #3, single 15 mg/kg iv cassette dose (3 mg/kg/compound), 0.25 h): 371.9 ± 35.9 ng/mL | Mean Conc. in plasma ([2]; Cassette #3, single 15 mg/kg iv cassette dose (3 mg/kg/compound), 0.5 h): 141.4 ± 9.5 ng/mL | Mean Conc. in plasma ([2]; Cassette #3, single 15 mg/kg iv cassette dose (3 mg/kg/compound), 1 h): 65.0 ± 14.0 ng/mL | Mean Conc. in plasma ([2]; Cassette #3, single 15 mg/kg iv cassette dose (3 mg/kg/compound), 3 h): 19.2 ± 6.0 ng/mL | Mean Conc. in plasma ([2]; Cassette #3, single 15 mg/kg iv cassette dose (3 mg/kg/compound), 6 h): 4.3 ± 0.7 ng/mL | Mean Conc. in plasma ([2]; Cassette #3, single 15 mg/kg iv cassette dose (3 mg/kg/compound), 8 h): 3.2 ± 1.6 ng/mL | Mean Conc. in plasma ([2]; Cassette #3, single 15 mg/kg iv cassette dose (3 mg/kg/compound), 24 h): BLQ^a | Mean Red Blood Cell to Plasma Ratio [3]: 8.4 | Mean Red Blood Cell to Plasma Ratio [4]: 3.4

CN1CC[C@H](c2c(O)cc(O)c3c(=O)cc(-c4ccccc4Cl)oc23)[C@H](O)C1 [Flavopiridol]
concentration giving maximal protection from death [5]: 1 µM | cell death at day 6 [5]: approximately 30% | SMC growth [6]: inhibit SMC growth in vitro and in vivo

CC(C)=CC(=O)N1CCC(Nc2nc(N[C@H]3CC[C@H](N)CC3)nc3c2ncn3C2CCCC2)CC1 [Compound 30, trans 1-{4-[2-(4-Amino-cyclohexylamino)-9-cyclopentyl-9#H!-purin-6-ylamino]-piperidin-1-yl}-3-methyl-but-2-en-1-one dihydrochloride]
pIC50 [7]: 6.17 | pIC50 [8]: 7.60

trans-3-{4-[2-(4-Amino-cyclohexylamino)-9-cyclopentyl-9H-purin-6-ylamino]-piperidine-1-sulfonyl}-benzoic acid methyl ester dihydrochloride [Compound 135]
IC50 [9]: 3.38 µM | pIC50 [10]: 8.40 | IC50 ([1]; MTT assay, mean (SD, n) where given, read-out: PC-3 Prostate (IC50 μM)): 4.05 µM | pIC50 [7]: 7.21 | pIC50 ([8]; read-out: CDK1 IC50, inhibition of cyclin B/CDK 1 enzyme activity): 7.10

Cn1cnc2c(NCc3ccccc3)nc(NCCO)nc21 [Olomoucine, 6-(benzylamino)-2-[(2-hydroxyethyl)amino]-9-methylpurine]
replication of herpes simplex virus [11]: inhibited the replication | concentration giving maximal protection from death [5]: 200 µM | cell death at day 6 [5]: approximately 30%

Cn1cnc2nc(NCCO)nc(NCc3ccccc3)c21 [iso-olomoucine]
prevention of cell death of camptothecin-treated neuronal cells [12]: failed to prevent the cell death | prevention of cell death of camptothecin-treated neuronal cells ([5]; PC12 cells / sympathetic neurons): failed to prevent the cell death

Cc1ccc(OC(=O)N2CCC(Nc3nc(N[C@H]4CC[C@H](N)CC4)nc4c3ncn4C3CCCC3)CC2)cc1.Cl.Cl [Compound 82, trans-4-[2-(4-Amino-cyclohexylamino)-9-cyclopentyl-9H-purin-6-ylamino]-piperidine-1-carboxylic acid p-tolyl ester dihydrochloride]
Mean Conc. in plasma ([2]; Cassette #4, single 15 mg/kg iv cassette dose (3 mg/kg/compound), 0.083 h): 1458.0 ± 77.4 ng/mL | Mean Conc. in plasma ([2]; Cassette #4, single 15 mg/kg iv cassette dose (3 mg/kg/compound), 0.25 h): 875.3 ± 96.7 ng/mL | Mean Conc. in plasma ([2]; Cassette #4, single 15 mg/kg iv cassette dose (3 mg/kg/compound), 0.5 h): 369.6 ± 40.0 ng/mL | Mean Conc. in plasma ([2]; Cassette #4, single 15 mg/kg iv cassette dose (3 mg/kg/compound), 1 h): 133.7 ± 16.3 ng/mL | Mean Conc. in plasma ([2]; Cassette #4, single 15 mg/kg iv cassette dose (3 mg/kg/compound), 3 h): 37.5 ± 10.7 ng/mL | Mean Conc. in plasma ([2]; Cassette #4, single 15 mg/kg iv cassette dose (3 mg/kg/compound), 6 h): 14.5 ± 3.4 ng/mL | Mean Conc. in plasma ([2]; Cassette #4, single 15 mg/kg iv cassette dose (3 mg/kg/compound), 8 h): 12.3 ± 2.2 ng/mL | Mean Conc. in plasma ([2]; Cassette #4, single 15 mg/kg iv cassette dose (3 mg/kg/compound), 24 h): BLQ | Cls ([2]; mouse plasma, iv Cassette #4, 3 mg/kg/compound (15 mg/kg total dose)): 53.0 mL/min/kg | HL60 Mean Vol. ± SD [13]: 5164 ± 5516 | Mean Red Blood Cell to Plasma Ratio [3]: 5.8

CCCCc1ccc(C(=O)N2CCC(Nc3nc(N[C@H]4CC[C@H](N)CC4)nc4c3ncn4C3CCCC3)CC2)cc1 [Compound 21, trans-1-{4-[2-(4-Amino-cyclohexylamino)-9-cyclopentyl-9H-purin-6-ylamino]-piperidin-1-yl}-1-(4-butyl-phenyl)-methanone]
pIC50 [7]: 6.32 | pIC50 [8]: 7.05

N[C@H]1CC[C@H](Nc2nc(NC3CCN(C(=O)/C=C/c4ccccc4)CC3)c3ncn(C4CCCC4)c3n2)CC1 [Compound 62, trans-(E)-1-{4-[2-(4-Amino-cyclohexylamino)-9-cyclopentyl-9H-purin-6-ylamino]-piperidin-1-yl}-3-phenyl-propenone dihydrochloride]
pIC50 [7]: 6.78 | pIC50 [8]: 7.60
